Experimental data as given in PubChem BioAssay (NCI).
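Compound exposure: 48 hours, 5 concentrations, 96-well plates. The concentration for 50% growth inhibition is given as GI50. TGI is the concentration that stops growth completely.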

Tests used:
Experiment in all cases: NCI anticancer screen, dose series, 48 h
[1] = system: 786-0 renal
[2] = system: ACHN renal
[3] = system: CAKI-1 renal
[4] = system: COLO 205 colon
[5] = system: DU-145 prostate
[6] = system: HCC-2998 colon
[7] = system: HCT-116 colon
[8] = system: HCT-15 colon
[9] = system: HOP-62 NSCLC
[10] = system: HOP-92 NSCLC
[11] = system: HS 578T breast
[12] = system: HT29 colon
[13] = system: IGROV1 ovarian
[14] = system: K-562 leukemia
[15] = system: KM12 colon
[16] = system: M14 melanoma
[17] = system: MALME-3M melanoma
[18] = system: MCF7 breast
[19] = system: MDA-MB-231 breast
[20] = system: MDA-MB-435
[21] = system: MOLT-4 leukemia
[22] = system: NCI-H23 lung
[23] = system: NCI-H460 lung
[24] = system: NCI/ADR-RES ovarian
[25] = system: OVCAR-3 ovarian
[26] = system: OVCAR-4 ovarian
[27] = system: OVCAR-5 ovarian
[28] = system: OVCAR-8 ovarian
[29] = system: PC-3 prostate
[30] = system: RPMI-8226 leukemia
[31] = system: RXF 393 renal
[32] = system: SF-268 CNS
[33] = system: SF-295 CNS
[34] = system: SK-MEL-2 melanoma
[35] = system: SK-OV-3 ovarian
[36] = system: SNB-19 CNS
[37] = system: SNB-75 CNS
[38] = system: SW-620 colon
[39] = system: T-47D breast
[40] = system: TK-10 renal
[41] = system: UACC-257 melanoma
[42] = system: UO-31 renal

CNc1ccc(C(=O)CC(O)CCC(C)C2OC(=O)CC(O)CC(=O)CC(O)CC(O)CC(O)CC(O)CC3(O)CC(O)C(C(=O)NCCN(C)C)C(CC(OC4OC(C)C(O)C(NC(=O)CN5CCN(CCO)CC5)C4O)/C=C/C=C/C=C/C=C\C=C/C=C/C=C/C2C)O3)cc1 (configuration not stated)
GI50 [1]: 197 nM | TGI [1]: > 50000 nM | GI50 [2]: 1120 nM | TGI [2]: 2440 nM | GI50 [3]: 192 nM | TGI [3]: > 18700 nM | GI50 [4]: 508 nM | TGI [4]: 1810 nM | GI50 [5]: 161 nM | TGI [5]: 610 nM | GI50 [6]: 1910 nM | TGI [6]: 4260 nM | GI50 [7]: 546 nM | TGI [7]: 2130 nM | GI50 [8]: 2920 nM | TGI [8]: > 50000 nM | GI50 [9]: 1170 nM | TGI [9]: 6210 nM | TGI [10]: > 50000 nM | GI50 [11]: > 50000 nM | TGI [11]: > 50000 nM | GI50 [12]: 931 nM | TGI [12]: > 11600 nM | GI50 [13]: > 50000 nM | TGI [13]: > 50000 nM | GI50 [14]: 163 nM | TGI [14]: 1350 nM | GI50 [15]: 165 nM | TGI [15]: 490 nM | GI50 [16]: 494 nM | TGI [16]: 1510 nM | GI50 [17]: 96.6 nM | TGI [17]: 300 nM | GI50 [18]: 219 nM | TGI [18]: > 50000 nM | GI50 [19]: 832 nM | TGI [19]: 2910 nM | GI50 [20]: 692 nM | TGI [20]: 1910 nM | GI50 [21]: 424 nM | TGI [21]: > 21400 nM | GI50 [22]: 14800 nM | TGI [22]: 47300 nM | GI50 [23]: 242 nM | TGI [23]: 1740 nM | GI50 [24]: 2070 nM | TGI [24]: 14200 nM | GI50 [25]: 768 nM | TGI [25]: 3030 nM | GI50 [26]: 1650 nM | TGI [26]: > 17400 nM | GI50 [27]: 3590 nM | TGI [27]: > 30600 nM | GI50 [28]: 2500 nM | TGI [28]: > 50000 nM | GI50 [29]: 296 nM | TGI [29]: > 50000 nM | GI50 [30]: > 50000 nM | TGI [30]: > 50000 nM | GI50 [31]: > 50000 nM | TGI [31]: > 50000 nM | GI50 [32]: 193 nM | TGI [32]: > 50000 nM | GI50 [33]: 706 nM | TGI [33]: 1640 nM | GI50 [34]: 19900 nM | TGI [34]: > 50000 nM | GI50 [35]: 2380 nM | TGI [35]: > 50000 nM | GI50 [36]: 1620 nM | TGI [36]: > 50000 nM | GI50 [37]: > 22300 nM | TGI [37]: > 50000 nM | GI50 [38]: 728 nM | TGI [38]: > 50000 nM | GI50 [39]: 1080 nM | TGI [39]: > 50000 nM | GI50 [40]: 143 nM | GI50 [41]: 935 nM | TGI [41]: 2790 nM | GI50 [42]: 2170 nM | TGI [42]: > 50000 nM
